Source: US20230107642A1 (Erasca, Inc., priority 2020, published 2023)

Target: T1, K-Ras G12C (Homo sapiens, UniProt P01116, G12C)
T1 construct: This protein contained 188 amino acids in total, including an N-terminal 6-Histidine tag; made in house; host or cells: E. coli BL21
Assay: CAF assay (% CAF; method in Example 7, not in this part)
Assay type: binding

% CAF @ 10 uM, 1h (10 uM, 1 h, Table 3) | % CAF @ 10 uM, 1h (10 uM compound, 1 h incubation) | SMILES | further results
86.8% | – | C=CC(=O)N1CCN(c2nc(=O)n3c4c(c(-c5c(F)cc(F)cc5F)c(Cl)cc24)SC[C@H]3COC)[C@@H](C)C1 [Example 137, (R)-7-((S)-4-acryloyl-2-methylpiperazin-1-yl)-9-chloro-3-(methoxymethyl)-10-(2,4,6-trifluorophenyl)-2,3-dihydro-5H-[1,4]thiazino[2,3,4-ij]quinazolin-5-one] | % CAF @ 10 μM, 1 h (10 μM, 1 h, Table 4): 86.8%
– | 96% | C=CC(=O)N1[C@H](C)CN(c2nc(=O)n3c4c(c(-c5cc(Cl)c(F)cc5F)c(C(F)(F)F)cc24)SC[C@H](OC)C3)C[C@@H]1C [Example 535, (3R)-8-((3S,5R)-4-acryloyl-3,5-dimethylpiperazin-1-yl)-11-(5-chloro-2,4-difluorophenyl)-3-methoxy-10-(trifluoromethyl)-3,4-dihydro-2H,6H-[1,4]thiazepino[2,3,4-ij]quinazolin-6-one] | –
– | 90% | C=CC(=O)N1CCN(c2nc(=O)n3c4c(c(-c5cc(Cl)c(F)cc5F)c(Cl)cc24)SC[C@@H]3CN2CCC3(CC2)COC3)[C@@H](C)C1 (atropisomer, axis not shown) [Example 482, (3S,10S)-3-((2-oxa-7-azaspiro[3.5]nonan-7-yl)methyl)-7-((S)-4-acryloyl-2-methylpiperazin-1-yl)-9-chloro-10-(5-chloro-2,4-difluorophenyl)-2,3-dihydro-5H-[1,4]thiazino[2,3,4-ij]quinazolin-5-one] | –
– | 80.2% | C=CC(=O)N1CCN(c2nc(=O)n3c4c(c(-c5ccc(F)cc5F)c(C(F)(F)F)cc24)SC[C@@H]3COCOC)[C@@H](C)C1 (atropisomer, axis not shown) [Example 549, (3S,10S)-7-((S)-4-acryloyl-2-methylpiperazin-1-yl)-10-(2,4-difluorophenyl)-3-((methoxymethoxy)methyl)-9-(trifluoromethyl)-2H-[1,4]thiazino[2,3,4-ij]quinazolin-5(3H)-one] | –
51.9% | – | C=CC(=O)N1CCN(c2nc(=O)n3c4c(c(-c5cccc6ccccc56)c(Cl)cc24)SCC3)[C@@H](C)C1 (atropisomer, axis not shown) [Example 172, 7-((S)-4-acryloyl-2-methylpiperazin-1-yl)-9-chloro-10-(naphthalen-1-yl)-2,3-dihydro-5H-[1,4]thiazino[2,3,4-ij]quinazolin-5-one] | –
– | 86% | C=CC(=O)N1CCN(c2nc(=O)n3c4c(c(-c5ccc(F)cc5F)c(Cl)cc24)SC[C@H](OC)C3)CC1 [Example 525, (3R)-8-(4-acryloylpiperazin-1-yl)-10-chloro-11-(2,4-difluorophenyl)-3-methoxy-3,4-dihydro-2H,6H-[1,4]thiazepino[2,3,4-ij]quinazolin-6-one] | –
– | 38% | C=CC(=O)N1CCN(c2nc(=O)n3c4c(c(-c5cc(Cl)c(F)cc5F)c(Cl)cc24)SC[C@@H]3COCOC)[C@@H](C)C1 [Example 446, (3S)-7-((S)-4-acryloyl-2-methylpiperazin-1-yl)-9-chloro-10-(5-chloro-2,4-difluorophenyl)-3-((methoxymethoxy)methyl)-2H-[1,4]thiazino[2,3,4-ij]quinazolin-5(3H)-one] | –
– | 96.1% | C=CC(=O)N1CCN(c2nc(=O)n3c4c(c(-c5ccc(F)cc5F)c(C(F)(F)F)cc24)SC[C@@H]3COC)CC1 [Example 514, (3S)-7-(4-acryloylpiperazin-1-yl)-10-(2,4-difluorophenyl)-3-(methoxymethyl)-9-(trifluoromethyl)-2H-[1,4]thiazino[2,3,4-ij]quinazolin-5(3H)-one] | –
60.3% | – | C=CC(=O)N1CCN(c2nc(=O)n3c4c(c(-c5ccc(F)c(C(=O)NC)c5)c(Cl)cc24)SCC3)[C@@H](C)C1 [Example 85, (S)-5-(7-(4-acryloyl-2-methylpiperazin-1-yl)-9-chloro-5-oxo-2,3-dihydro-5H-[1,4]thiazino[2,3,4-ij]quinazolin-10-yl)-2-fluoro-N-methylbenzamide] | –
23.3% | – | C=CC(=O)N1CCN(c2nc(=O)n3c4c(c(-c5ccc(F)cc5F)c(Cl)cc24)SCC3)[C@@H](CN2CCC2)C1 [Example 169, 7-((S)-4-acryloyl-2-(azetidin-1-ylmethyl)piperazin-1-yl)-9-chloro-10-(2,4-difluorophenyl)-2,3-dihydro-5H-[1,4]thiazino[2,3,4-ij]quinazolin-5-one] | –
– | 91.2% | C=CC(=O)N1CCN(c2nc(=O)n3c4c(c(-c5cc(F)c(F)cc5F)c(Cl)cc24)SC[C@@H]3CN2CCN(CC)CC2)[C@@H](C)C1 [Example 416, (3S)-7-((S)-4-acryloyl-2-methylpiperazin-1-yl)-9-chloro-3-((4-ethylpiperazin-1-yl)methyl)-10-(2,4,5-trifluorophenyl)-2H-[1,4]thiazino[2,3,4-ij]quinazolin-5(3H)-one] | –
– | 68.2% | C=CC(=O)N1C[C@H](C)N(c2nc(=O)n3c4c(c(-c5ccc(F)cc5)c(Cl)cc24)SC[C@@H]3CN2CCn3c(nnc3C(F)(F)F)C2)C[C@H]1C [Example 445, (S)-7-((2S,5R)-4-acryloyl-2,5-dimethylpiperazin-1-yl)-9-chloro-10-(4-fluorophenyl)-3-((3-(trifluoromethyl)-5,6-dihydro-[1,2,4]triazolo[4,3-a]pyrazin-7(8H)-yl)methyl)-2H-[1,4]thiazino[2,3,4-ij]quinazolin-5(3H)-one] | –
– | 73.3% | C=CC(=O)N1CCN(c2nc(=O)n3c4c(c(-c5ccc(F)c6cccnc56)c(Cl)cc24)SC[C@@H]3COC)[C@@H](C)C1 [Example 474, (3S)-7-((S)-4-acryloyl-2-methylpiperazin-1-yl)-9-chloro-10-(5-fluoroquinolin-8-yl)-3-(methoxymethyl)-2,3-dihydro-5H-[1,4]thiazino[2,3,4-ij]quinazolin-5-one] | –

Continued, compound first:

SMILES | % CAF @ 10 uM, 1h (10 uM, 1 h, Table 3) | % CAF @ 10 uM, 1h (10 uM compound, 1 h incubation) | further results
C=CC(=O)N1C2CN(C(C)=O)CC1CN(c1nc(=O)n3c4c(c(-c5ccc(F)cc5F)c(Cl)cc14)SCC3)C2 [Example 72] | 80.5% | – | –
C=CC(=O)N1CCN(c2nc(=O)n3c4c(c(-c5cccc(F)c5F)c(Cl)cc24)SCC3)[C@@H](C)C1 [Example 74, 7-((S)-4-acryloyl-2-methylpiperazin-1-yl)-9-chloro-10-(2,3-difluorophenyl)-2,3-dihydro-5H-[1,4]thiazino[2,3,4-ij]quinazolin-5-one] | 95.6% | – | –
C=CC(=O)N1CCN(c2nc(=O)n3c4c(c(-c5ccc(F)cc5F)c(C5CC5)cc24)SCC3)[C@@H](C)C1 [Example 143, 7-((S)-4-acryloyl-2-methylpiperazin-1-yl)-9-cyclopropyl-10-(2,4-difluorophenyl)-2,3-dihydro-5H-[1,4]thiazino[2,3,4-ij]quinazolin-5-one] | 95.4% | – | –
C=CC(=O)N1CCN(c2nc(=O)n3c4c(c(-c5ccc(F)cc5F)c(Cl)cc24)SC[C@H](OC)C3)[C@@H](C)C1 [Example 488, (3R)-8-((S)-4-acryloyl-2-methylpiperazin-1-yl)-10-chloro-11-(2,4-difluorophenyl)-3-methoxy-3,4-dihydro-2H,6H-[1,4]thiazepino[2,3,4-ij]quinazolin-6-one] | – | 96% | –
C=CC(=O)N1CCN(c2nc(=O)n3c4c(c(-c5cc(F)c(F)cc5F)c(Cl)cc24)SC[C@@H]3CC2CCN(C3COC3)CC2)[C@@H](C)C1 [Example 421, (3S)-7-((S)-4-acryloyl-2-methylpiperazin-1-yl)-9-chloro-3-((1-(oxetan-3-yl)piperidin-4-yl)methyl)-10-(2,4,5-trifluorophenyl)-2H-[1,4]thiazino[2,3,4-ij]quinazolin-5(3H)-one] | – | 85.1% | –
C=CC(=O)N1CCN(c2nc(=O)n3c4c(c(-c5ccc(F)cc5)c(Cl)cc24)SC[C@@H]3CN2CCN(CC)CC2)[C@@H](C)C1 [Example 410, (S)-7-((S)-4-acryloyl-2-methylpiperazin-1-yl)-9-chloro-3((4-ethylpiperazin-1-yl)methyl)-10-(4-fluorophenyl)-2H-[1,4]thiazino[2,3,4-ij]quinazolin-5(3H)-one] | – | 83.9% | –
C=CC(=O)N1C[C@H](C)N(c2nc(=O)n3c4c(c(-c5ccc(F)cc5)c(Cl)cc24)SC[C@@H]3COCCOC)C[C@H]1C [Example 558, (S)-7-((2S,5R)-4-acryloyl-2,5-dimethylpiperazin-1-yl)-9-chloro-10-(4-fluorophenyl)-3-((2-methoxyethoxy)methyl)-2H-[1,4]thiazino[2,3,4-ij]quinazolin-5(3H)-one] | – | 64.3% | –
C=CC(=O)N1CCN(c2nc(=O)n3c4c(c(-c5c(F)ccc6[nH]ncc56)c(Cl)cc24)SCC3)[C@@H](C)C1 [Example 408, 7-((S)-4-acryloyl-2-methylpiperazin-1-yl)-9-chloro-10-(5-fluoro-1H-indazol-4-yl)-2,3-dihydro-5H-[1,4]thiazino[2,3,4-ij]quinazolin-5-one] | – | 39.3% | –
C=CC(=O)N1[C@H](C)CN(c2nc(=O)n3c4c(c(-c5cc(F)c(F)cc5F)c(Cl)cc24)SC[C@@H]3COC)C[C@@H]1C [Example 506, (3S)-7-((3S,5R)-4-acryloyl-3,5-dimethylpiperazin-1-yl)-9-chloro-3-(methoxymethyl)-10-(2,4,5-trif1uorophenyl)-2,3-dihydro-5H-[1,4]thiazino[2,3,4-ij]quinazolin-5-one] | – | 17.5% | –
C=CC(=O)N1CCN(c2nc(=O)n3c4c(c(-c5ccc(F)cc5F)c(Cl)cc24)SCC3)[C@@H](C#N)C1 [Example 173, (2R)-4-acryloyl-1-(9-chloro-10-(2,4-difluorophenyl)-5-oxo-2,3-dihydro-5H-[1,4]thiazino[2,3,4-ij]quinazolin-7-yl)piperazine-2-carbonitrile] | 2.2% | – | –
C=CC(=O)N1CCN(c2nc(=O)n3c4c(c(-c5cc(O)ccc5Cl)c(Cl)cc24)SCC3)[C@@H](C)C1 [Example 153, 7-((S)-4-acryloyl-2-methylpiperazin-1-yl)-9-chloro-10-(2-chloro-5-hydroxyphenyl)-2,3-dihydro-5H-[1,4]thiazino[2,3,4-ij]quinazolin-5-one] | 55.7% | – | –
